# pIC50: −log10 of the molar value.
# What was measured:
# PR-B = target: T1, PR-B (Homo sapiens, UniProt P06401); assay: Transactivation test on antagonistic activity on PR-B; type: cell-based
# T1 construct: expressed in transfected cells
# T1 sequence (P06401 1-933): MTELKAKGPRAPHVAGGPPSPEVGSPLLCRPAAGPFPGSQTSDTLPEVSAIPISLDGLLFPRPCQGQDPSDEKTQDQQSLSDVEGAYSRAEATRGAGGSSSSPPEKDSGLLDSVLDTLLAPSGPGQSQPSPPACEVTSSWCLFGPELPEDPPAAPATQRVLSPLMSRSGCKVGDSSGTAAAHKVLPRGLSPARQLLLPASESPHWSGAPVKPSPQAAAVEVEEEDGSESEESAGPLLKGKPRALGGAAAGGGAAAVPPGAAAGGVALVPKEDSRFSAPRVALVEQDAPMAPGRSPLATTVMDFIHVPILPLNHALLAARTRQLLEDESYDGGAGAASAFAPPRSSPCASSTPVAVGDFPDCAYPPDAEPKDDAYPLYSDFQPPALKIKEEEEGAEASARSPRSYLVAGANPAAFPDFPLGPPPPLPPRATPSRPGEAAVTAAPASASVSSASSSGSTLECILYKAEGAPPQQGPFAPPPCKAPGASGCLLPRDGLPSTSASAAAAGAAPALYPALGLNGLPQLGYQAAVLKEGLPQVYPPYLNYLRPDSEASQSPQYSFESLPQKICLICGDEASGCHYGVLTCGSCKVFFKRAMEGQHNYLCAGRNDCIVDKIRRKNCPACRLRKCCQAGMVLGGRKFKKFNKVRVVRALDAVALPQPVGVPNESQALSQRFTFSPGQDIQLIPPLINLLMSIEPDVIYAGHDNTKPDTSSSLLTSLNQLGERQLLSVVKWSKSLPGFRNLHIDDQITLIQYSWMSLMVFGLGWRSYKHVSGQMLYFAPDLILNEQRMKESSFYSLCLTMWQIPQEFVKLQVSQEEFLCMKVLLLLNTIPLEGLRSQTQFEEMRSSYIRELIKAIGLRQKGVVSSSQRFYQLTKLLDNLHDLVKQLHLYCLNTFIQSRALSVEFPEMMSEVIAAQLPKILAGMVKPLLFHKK
# Description: (§1) The transactivation assay is carried out as described in WO 02/054064.
# PR-A = target: T2, PR-A (Homo sapiens, UniProt P06401); assay: Transactivation test on antagonistic activity at PR-A; type: cell-based; settings: for pIC50: antagonism at PR-A; for Emax: read-out: Efficacy (antagonism at PR-A) [%]
# T2 construct: expressed in transfected cells
# T2 sequence (P06401 1-769 isoform P06401-2): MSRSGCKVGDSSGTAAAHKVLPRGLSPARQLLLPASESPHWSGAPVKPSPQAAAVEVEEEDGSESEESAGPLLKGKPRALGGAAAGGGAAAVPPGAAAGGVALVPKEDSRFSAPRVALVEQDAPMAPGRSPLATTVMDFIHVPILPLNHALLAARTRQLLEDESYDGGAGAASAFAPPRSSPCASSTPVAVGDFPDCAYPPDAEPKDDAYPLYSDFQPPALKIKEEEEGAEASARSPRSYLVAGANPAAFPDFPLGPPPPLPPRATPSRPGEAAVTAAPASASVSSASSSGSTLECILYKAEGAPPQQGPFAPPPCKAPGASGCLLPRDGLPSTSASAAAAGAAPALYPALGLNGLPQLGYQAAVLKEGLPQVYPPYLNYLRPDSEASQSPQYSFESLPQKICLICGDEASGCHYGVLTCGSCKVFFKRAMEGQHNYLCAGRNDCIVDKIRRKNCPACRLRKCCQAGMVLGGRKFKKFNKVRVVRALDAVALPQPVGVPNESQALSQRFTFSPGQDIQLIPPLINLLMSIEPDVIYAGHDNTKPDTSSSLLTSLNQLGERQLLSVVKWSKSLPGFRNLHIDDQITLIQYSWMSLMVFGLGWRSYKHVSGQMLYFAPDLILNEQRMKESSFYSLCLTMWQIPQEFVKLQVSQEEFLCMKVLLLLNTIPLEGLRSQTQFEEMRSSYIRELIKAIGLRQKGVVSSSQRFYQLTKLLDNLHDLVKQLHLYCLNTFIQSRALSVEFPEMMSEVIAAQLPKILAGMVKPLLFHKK
# Description: as §1
Structure (SMILES),pIC50 (PR-B),pIC50 (PR-A),Emax (PR-A) [%]
"N#Cc1ccc(NC(=O)C(O)(Cc2ccccc2)C2CCCCC2)cc1Cl (racemic) [Example 3, rac-N-(3-Chloro-4-cyanophenyl)-2-hydroxy-2-cyclohexyl-3-phenylpropanamide]",8.25,–,–
"Cc1ccc(C#CC(O)(C(=O)Nc2ccc(C#N)c(Cl)c2)C2CCCCC2)cc1 (racemic) [Example 4, rac-N-(3-Chloro-4-cyanophenyl)-2-hydroxy-2-cyclohexyl-2-(4-methylphenyl)-ethynylacetamide]",8.70,–,–
"N#Cc1ccc(NC(=O)C(O)(C#Cc2ccc(O)cc2)C2CCCCC2)cc1Cl (racemic) [Example 10, rac-N-(3-Chloro-4-cyanophenyl)-2-hydroxy-2-cyclohexyl-2-(4-hydroxyphenyl)-ethynylacetamide]",8.15,–,–
"CC(=O)c1ccc(-c2ccccc2CC(O)(C(=O)Nc2ccc(C#N)c(Cl)c2)C2CCCCC2)cc1 (single isomer, unassigned) [Example 19a, rac-3-(4′-Acetylbiphenyl-2-yl)-N-(3-chloro-4-cyanophenyl)-2-cyclohexyl-2-hydroxy-propionamide]",–,8.20,108
"N#Cc1ccc(NC(=O)C(O)(Cc2ccccc2)C2CCN(C(=O)c3ccccc3)CC2)cc1C(F)(F)F (single isomer, unassigned) [Example 101a, 2-(1-Benzoylpiperidin-4-yl)-N-(4-cyano-3-trifluoromethylphenyl)-2-hydroxy-3-phenylpropionamide]",–,7.83,103
"CS(=O)(=O)N1CCC(C(O)(Cc2ccccc2)C(=O)Nc2ccc(C#N)c(C(F)(F)F)c2)CC1 (single isomer, unassigned) [Example 103, N-(4-Cyano-3-trifluoromethylphenyl)-2-hydroxy-2-(1-methanesulfonyl-piperidin-4-yl)-3-phenylpropionamide]",–,7.31,98.5
"N#Cc1ccc(NC(=O)C(O)(Cc2ccccc2)C2CCN(C(=O)C3CC3)CC2)cc1C(F)(F)F (single isomer, unassigned) [Example 108, N-(4-Cyano-3-trifluoromethylphenyl)-2-(1-cyclopropanecarbonylpiperidin-4-yl)-2-hydroxy-3-phenylpropion amide]",–,7.44,96
"N#Cc1ccc(NC(=O)C(O)(Cc2ccccc2)C2CCN(S(=O)(=O)c3cccc(Cl)c3)CC2)cc1C(F)(F)F (single isomer, unassigned) [Example 111, 2-[1-(3-Chlorobenzenesulfonyl)-piperidin-4-yl]-N-(4-cyano-3-trifluoro-methylphenyl)-2-hydroxy-3-phenyl-propionamide]",–,8.38,103
"N#Cc1ccc(NC(=O)C(O)(Cc2ccccc2)C2CCN(C(=O)c3ccno3)CC2)cc1C(F)(F)F (single isomer, unassigned) [Example 113, N-(4-Cyano-3-trifluoromethylphenyl)-2-hydroxy-2-[1-(isoxazole-5-carbonyl)piperidin-4-yl]-3-phenyl-propionamide]",–,7.66,97.9
"CNC(=O)c1cccc(-c2cccc(CC(O)(C(=O)Nc3ccc(C#N)c(C(F)(F)F)c3)C3CCN(C(=O)c4ccccc4)CC3)c2)c1 (single isomer, unassigned) [Example 159, N-Methyl-3′-[2-(1-benzoylpiperidin-4-yl)-2-(4-cyano-3-trifluoromethylphenyl-carbamoyl)-2-hydroxyethyl]biphenyl-3-carboxamide]",–,7.80,96.2
"N#Cc1ccc(NC(=O)C(O)(Cc2cccc(-c3cccc(C(N)=O)c3)c2)C2CCN(S(=O)(=O)c3ccc(F)cc3)CC2)cc1C(F)(F)F (single isomer, unassigned) [Example 172, 3′-{2-(4-Cyano-3-trifluoromethyl-phenylcarbamoyl)-2-[1-(4-fluoro-benzenesulfonyl)piperidin-4-yl]-2-hydroxyethyl}biphenyl-3-carboxamide]",–,8.92,101
"N#Cc1ccc(NC(=O)C(O)(Cc2cccc(O)c2)C2CCCCC2)cc1C(F)(F)F (single isomer, unassigned) [Example 200b, N-(4-Cyano-3-trifluoromethylphenyl)-2-cyclohexyl-2-hydroxy-3-(3-hydroxy-phenyl)propionamide]",–,8.25,98.5
"CNS(=O)(=O)c1ccc(-c2cccc(C[C@](O)(C(=O)Nc3ccc(C#N)c(C(F)(F)F)c3)C3CCCCC3)c2)cc1 (stereo in doubt) [Example 63, N-(4-Cyano-3-trifluoromethylphenyl)-2-cyclohexyl-2-hydroxy-3-(4′-methyl-sulfamoylbiphenyl-3-yl)propionamide]",–,7.58,104
"N#Cc1ccc(NC(=O)C(O)(Cc2cccc(-c3ccsc3)c2)C2CCCCC2)cc1C(F)(F)F (stereo not drawn) [Example 59, N-(4-Cyano-3-trifluoromethylphenyl)-2-cyclohexyl-2-hydroxy-3-(3-thiophen-3-ylphenyl)propionamide]",–,7.33,103
"CNC(=O)c1cccc(-c2cccc(CC(O)(C(=O)Nc3ccc(C#N)c(C(F)(F)F)c3)C3CCCCC3)c2)c1 (stereo not drawn) [Example 68, N-Methyl-3′-[2-(4-cyano-3-trifluoro-methylphenylcarbamoyl)-2-cyclohexyl-2-hydroxyethyl]biphenyl-3-carboxamide]",–,8.29,102
"CC(=O)Nc1cccc(-c2cccc(CC(O)(C(=O)Nc3ccc(C#N)c(C(F)(F)F)c3)C3CCCCC3)c2)c1 (stereo not drawn) [Example 71, 3-(3′-Acetylaminobiphenyl-3-yl)-N-(4-cyano-3-trifluoromethylphenyl)-2-cyclohexyl-2-hydroxypropionamide]",–,7.76,100
"N#Cc1ccc(NC(=O)C(O)(Cc2cccc(-c3ccc(C(=O)CO)cc3)c2)C2CCCCC2)cc1C(F)(F)F (stereo not drawn) [Example 78, N-(4-Cyano-3-trifluoromethylphenyl)-2-cyclohexyl-2-hydroxy-3-[4′-(2-hydroxy-acetyl)biphenyl-3-yl]propionamide]",–,7.25,101
"CS(=O)(=O)N1CCN(Cc2cccc(CC(O)(C(=O)Nc3ccc(C#N)c(C(F)(F)F)c3)C3CCCCC3)c2)CC1 (stereo not drawn) [Example 84, N-(4-Cyano-3-trifluoromethylphenyl)-2-cyclohexyl-2-hydroxy-3-[3-(4-methane-sulfonylpiperazin-1-ylmethyl)phenyl]-propionamide]",–,7.29,102
"Cn1c(C#N)ccc1NC(=O)C(O)(Cc1ccccc1)C1CCCCC1 (stereo not drawn) [Example 97, N-(5-Cyano-1-methyl-1H-pyrrol-2-yl)-2-cyclohexyl-2-hydroxy-3-phenyl-propionamide]",–,7.25,105
"N#Cc1ccc(NC(=O)C(O)(Cc2cccc(-c3cccc(C(=O)N4CCOCC4)c3)c2)C2CCN(C(=O)c3ccccc3)CC2)cc1C(F)(F)F (stereo not drawn) [Example 162, 2-(1-Benzoylpiperidin-4-yl)-N-(4-cyano-3-trifluoromethylphenyl)-2-hydroxy-3-[3′-(morpholine-4-carbonyl)-biphenyl-3-yl]propionamide]",–,7.36,99
"CNC(=O)c1cccc(-c2cccc(CC(O)(C(=O)Nc3ccc(C#N)c(C(F)(F)F)c3)C3CCN(S(=O)(=O)c4cccc(F)c4)CC3)c2)c1 (stereo not drawn) [Example 169, N-Methyl-3′-{2-(4-cyano-3-trifluoro-methylphenylcarbamoyl)-2-[1-(3-fluoro-benzenesulfonyl)-piperidin-4-yl]-2-hydroxyethyl}biphenyl-3-carboxamide]",–,8.77,103
